Data published in US20100004234A1, “SPECIFIC KINASE INHIBITORS” (Kosan Biosciences Incorporated, priority 2004, published 2010).

Columns and labels:
Experiment in all cases: Kinase panel, residual activity
Type in all cases: biochemical
Settings in all cases: read-out: Percent residual activity
[1] = target: FGFR4(h) (Homo sapiens, UniProt P22455)
Method: (§1) In this panel of 124 kinases, 18 of the 19 kinases identified as having an active site cysteine were inhibited to some extent by hypothemycin at a concentration of 0.2 μM and/or 2 μM.

[2] = target: Fgr(h) (Homo sapiens, UniProt P09769)
Method: as §1

[3] = target: NEK6(h) (Homo sapiens, UniProt Q9HC98)
Method: as §1

[4] = target: EGFR(h) (Homo sapiens, UniProt P00533)
Sequence of EGFR(h) (P00533 25-1210): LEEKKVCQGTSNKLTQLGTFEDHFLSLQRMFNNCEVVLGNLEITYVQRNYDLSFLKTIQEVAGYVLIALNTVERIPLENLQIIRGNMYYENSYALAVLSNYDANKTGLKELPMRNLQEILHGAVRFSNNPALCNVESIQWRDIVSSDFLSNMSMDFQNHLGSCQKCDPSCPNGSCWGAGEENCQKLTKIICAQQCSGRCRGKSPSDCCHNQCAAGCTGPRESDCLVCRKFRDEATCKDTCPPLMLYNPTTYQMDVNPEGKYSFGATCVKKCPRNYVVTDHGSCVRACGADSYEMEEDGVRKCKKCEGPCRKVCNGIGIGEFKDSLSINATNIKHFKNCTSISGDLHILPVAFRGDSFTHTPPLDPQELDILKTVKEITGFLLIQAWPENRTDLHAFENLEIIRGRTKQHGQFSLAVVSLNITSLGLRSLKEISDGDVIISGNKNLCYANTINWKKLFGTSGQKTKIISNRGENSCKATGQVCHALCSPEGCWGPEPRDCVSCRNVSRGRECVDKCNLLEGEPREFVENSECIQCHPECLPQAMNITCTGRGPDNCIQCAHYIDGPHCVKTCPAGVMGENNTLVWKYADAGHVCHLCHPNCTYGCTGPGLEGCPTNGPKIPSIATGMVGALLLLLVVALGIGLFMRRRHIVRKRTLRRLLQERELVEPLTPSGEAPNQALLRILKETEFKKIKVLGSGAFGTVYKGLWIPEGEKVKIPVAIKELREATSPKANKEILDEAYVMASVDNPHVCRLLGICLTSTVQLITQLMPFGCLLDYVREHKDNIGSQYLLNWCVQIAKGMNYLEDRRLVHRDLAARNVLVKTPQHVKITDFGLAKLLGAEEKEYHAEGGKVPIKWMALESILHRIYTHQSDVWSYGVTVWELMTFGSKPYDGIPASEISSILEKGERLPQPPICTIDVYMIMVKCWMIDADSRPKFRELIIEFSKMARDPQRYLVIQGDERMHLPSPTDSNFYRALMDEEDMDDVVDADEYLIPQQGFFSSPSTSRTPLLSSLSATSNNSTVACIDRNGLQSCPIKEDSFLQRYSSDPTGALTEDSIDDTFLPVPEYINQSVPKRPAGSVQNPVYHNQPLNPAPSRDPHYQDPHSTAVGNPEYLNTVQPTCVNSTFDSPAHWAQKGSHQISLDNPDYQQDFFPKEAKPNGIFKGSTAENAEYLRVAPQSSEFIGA
Method: as §1

[5] = target: PKCθ(h) (Homo sapiens, UniProt Q04759)
Method: as §1

[6] = target: Arg(h) (Homo sapiens, UniProt P42684)
Method: as §1

[7] = target: MAPKAP-K2(h) (Homo sapiens, UniProt P49137)
Method: as §1

[8] = target: Tie2(h) (Homo sapiens, UniProt Q02763)
Method: as §1

[9] = target: PDGFRβ(h) (Homo sapiens, UniProt P09619)
Sequence of PDGFRβ(h) (P09619 33-1106): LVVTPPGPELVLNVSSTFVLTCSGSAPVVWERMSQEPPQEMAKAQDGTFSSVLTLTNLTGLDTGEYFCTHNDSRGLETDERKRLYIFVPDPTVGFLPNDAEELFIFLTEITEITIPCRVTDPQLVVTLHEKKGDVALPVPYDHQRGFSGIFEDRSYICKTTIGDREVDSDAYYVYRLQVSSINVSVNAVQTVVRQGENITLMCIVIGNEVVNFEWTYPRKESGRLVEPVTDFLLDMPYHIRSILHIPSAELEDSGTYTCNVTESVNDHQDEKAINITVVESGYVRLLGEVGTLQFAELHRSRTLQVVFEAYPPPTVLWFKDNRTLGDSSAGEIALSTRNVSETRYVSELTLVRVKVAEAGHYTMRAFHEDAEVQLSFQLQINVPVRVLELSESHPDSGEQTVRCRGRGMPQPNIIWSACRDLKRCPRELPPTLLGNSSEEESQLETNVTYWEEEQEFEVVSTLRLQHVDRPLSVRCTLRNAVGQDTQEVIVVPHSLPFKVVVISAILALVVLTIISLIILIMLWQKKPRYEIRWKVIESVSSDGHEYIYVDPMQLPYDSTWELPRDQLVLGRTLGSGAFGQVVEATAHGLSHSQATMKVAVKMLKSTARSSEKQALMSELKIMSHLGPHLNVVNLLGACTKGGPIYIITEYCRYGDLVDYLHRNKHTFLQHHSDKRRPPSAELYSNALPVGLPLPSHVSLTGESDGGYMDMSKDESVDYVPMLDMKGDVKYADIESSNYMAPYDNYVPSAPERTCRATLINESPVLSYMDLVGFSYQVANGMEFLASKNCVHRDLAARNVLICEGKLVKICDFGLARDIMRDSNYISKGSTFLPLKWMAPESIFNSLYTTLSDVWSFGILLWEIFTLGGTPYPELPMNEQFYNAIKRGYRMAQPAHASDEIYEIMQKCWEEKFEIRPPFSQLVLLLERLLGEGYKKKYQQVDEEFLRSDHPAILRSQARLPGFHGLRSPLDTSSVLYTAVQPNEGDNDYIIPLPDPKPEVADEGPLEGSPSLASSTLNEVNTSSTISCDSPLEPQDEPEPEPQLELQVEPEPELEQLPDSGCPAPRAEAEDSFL
Method: as §1

[10] = target: Lyn(h) (Homo sapiens, UniProt P07948)
Sequence of Lyn(h) (P07948 whole entry): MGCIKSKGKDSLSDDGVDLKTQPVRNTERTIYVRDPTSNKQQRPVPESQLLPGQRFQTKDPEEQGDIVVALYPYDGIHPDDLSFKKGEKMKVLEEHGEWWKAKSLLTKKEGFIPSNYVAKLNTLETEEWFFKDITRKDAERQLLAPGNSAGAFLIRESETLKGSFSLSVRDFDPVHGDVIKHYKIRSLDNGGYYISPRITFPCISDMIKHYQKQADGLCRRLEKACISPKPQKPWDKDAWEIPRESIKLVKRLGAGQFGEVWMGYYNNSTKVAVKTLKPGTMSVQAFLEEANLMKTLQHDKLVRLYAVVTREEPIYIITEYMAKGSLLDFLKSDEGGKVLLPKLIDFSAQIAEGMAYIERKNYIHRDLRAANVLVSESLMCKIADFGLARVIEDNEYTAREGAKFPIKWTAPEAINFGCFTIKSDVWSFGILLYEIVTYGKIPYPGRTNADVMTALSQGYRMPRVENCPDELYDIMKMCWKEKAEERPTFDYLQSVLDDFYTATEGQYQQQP
Method: as §1

[11] = target: PKA(h) (Homo sapiens, UniProt P17612)
Method: as §1

[12] = target: Yes(h) (Homo sapiens, UniProt P07947)
Method: as §1

[13] = target: MEK1(h) (Homo sapiens, UniProt Q02750)
Sequence of MEK1(h) (Q02750 whole entry): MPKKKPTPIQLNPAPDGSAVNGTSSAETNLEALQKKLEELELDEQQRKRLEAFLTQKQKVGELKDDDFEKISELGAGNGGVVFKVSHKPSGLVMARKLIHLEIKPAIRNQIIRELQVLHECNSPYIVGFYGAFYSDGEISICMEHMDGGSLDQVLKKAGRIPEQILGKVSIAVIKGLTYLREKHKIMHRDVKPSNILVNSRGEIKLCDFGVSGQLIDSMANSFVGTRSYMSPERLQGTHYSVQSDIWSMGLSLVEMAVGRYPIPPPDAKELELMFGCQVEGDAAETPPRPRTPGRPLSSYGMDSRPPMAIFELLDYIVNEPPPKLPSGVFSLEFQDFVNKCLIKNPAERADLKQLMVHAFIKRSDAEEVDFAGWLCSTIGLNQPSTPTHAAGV
Method: as §1

[14] = target: CDK2/cyclinA(h) (Homo sapiens, UniProt P24941)
Method: as §1

[15] = target: EphA2(h) (Homo sapiens, UniProt P29317)
Method: as §1

[16] = target: MST2(h) (Homo sapiens, UniProt Q13188)
Method: as §1

[17] = target: JNK3(h) (Homo sapiens, UniProt P53779)
Method: as §1

[18] = target: PKBγ(h) (Homo sapiens, UniProt Q9Y243)
Method: as §1

[19] = target: JNK1α1(h) (Homo sapiens, UniProt P45983)
Method: as §1

[20] = target: PKD2(h) (Homo sapiens, UniProt Q9BZL6)
Sequence of PKD2(h) (Q9BZL6 whole entry): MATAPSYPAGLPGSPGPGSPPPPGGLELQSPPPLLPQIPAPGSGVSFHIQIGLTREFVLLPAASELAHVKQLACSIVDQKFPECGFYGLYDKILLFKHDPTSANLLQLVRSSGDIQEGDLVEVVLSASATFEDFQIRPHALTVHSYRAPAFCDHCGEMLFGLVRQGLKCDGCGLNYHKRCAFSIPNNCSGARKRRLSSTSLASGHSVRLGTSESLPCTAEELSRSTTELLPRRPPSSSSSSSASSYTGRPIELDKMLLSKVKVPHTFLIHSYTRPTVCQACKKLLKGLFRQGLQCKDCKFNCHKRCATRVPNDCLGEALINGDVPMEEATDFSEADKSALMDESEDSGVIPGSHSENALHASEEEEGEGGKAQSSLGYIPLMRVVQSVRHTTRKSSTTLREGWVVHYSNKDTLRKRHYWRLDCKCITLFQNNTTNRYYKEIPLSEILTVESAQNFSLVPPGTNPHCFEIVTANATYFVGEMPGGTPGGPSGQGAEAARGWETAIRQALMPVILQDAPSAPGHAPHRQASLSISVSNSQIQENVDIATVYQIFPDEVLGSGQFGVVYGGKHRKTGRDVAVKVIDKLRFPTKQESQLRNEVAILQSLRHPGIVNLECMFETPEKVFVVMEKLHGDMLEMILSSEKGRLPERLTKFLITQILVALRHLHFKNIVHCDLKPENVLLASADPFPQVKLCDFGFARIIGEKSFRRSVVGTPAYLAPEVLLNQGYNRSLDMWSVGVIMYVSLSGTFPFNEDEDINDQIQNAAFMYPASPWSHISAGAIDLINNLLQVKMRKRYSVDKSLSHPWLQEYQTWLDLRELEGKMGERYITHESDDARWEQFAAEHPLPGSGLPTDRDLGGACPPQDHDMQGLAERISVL
Method: as §1

[21] = target: PKCγ(h) (Homo sapiens, UniProt P05129)
Method: as §1

[22] = target: PDK1(h) (Homo sapiens, UniProt O15530)
Method: as §1

[23] = target: MAPK2(h) (Homo sapiens, UniProt P28482)
Sequence of MAPK2(h) (P28482 whole entry): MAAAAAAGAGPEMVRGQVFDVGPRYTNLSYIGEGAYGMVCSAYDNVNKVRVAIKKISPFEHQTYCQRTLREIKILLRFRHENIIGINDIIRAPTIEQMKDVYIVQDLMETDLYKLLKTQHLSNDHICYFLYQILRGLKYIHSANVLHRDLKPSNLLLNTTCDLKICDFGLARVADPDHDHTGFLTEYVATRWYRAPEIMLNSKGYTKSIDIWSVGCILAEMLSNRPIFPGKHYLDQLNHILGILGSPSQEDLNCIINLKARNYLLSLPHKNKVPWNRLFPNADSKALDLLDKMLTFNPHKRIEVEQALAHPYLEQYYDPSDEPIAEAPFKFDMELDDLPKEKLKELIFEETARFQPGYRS
Method: as §1

[24] = target: Fyn(h) (Homo sapiens, UniProt P06241)
Method: as §1

[25] = target: PRK2(h) (Homo sapiens, UniProt Q16513)
Method: as §1

[26] = target: Ros(h) (Homo sapiens, UniProt P08922)
Method: as §1

[27] = target: Axl(h) (Homo sapiens, UniProt P30530)
Method: as §1

[28] = target: CDK6/cyclinD3(h) (Homo sapiens, UniProt Q00534)
Method: as §1

[29] = target: PKCβII(h) (Homo sapiens, UniProt P05771)
Method: as §1

[30] = target: Ron(h) (Homo sapiens, UniProt Q04912)
Method: as §1

[31] = target: SAPK2b(h) (Homo sapiens, UniProt Q15759)
Method: as §1

[32] = target: MKK7β(h) (Homo sapiens, UniProt O14733)
Sequence of MKK7β(h) (O14733 whole entry): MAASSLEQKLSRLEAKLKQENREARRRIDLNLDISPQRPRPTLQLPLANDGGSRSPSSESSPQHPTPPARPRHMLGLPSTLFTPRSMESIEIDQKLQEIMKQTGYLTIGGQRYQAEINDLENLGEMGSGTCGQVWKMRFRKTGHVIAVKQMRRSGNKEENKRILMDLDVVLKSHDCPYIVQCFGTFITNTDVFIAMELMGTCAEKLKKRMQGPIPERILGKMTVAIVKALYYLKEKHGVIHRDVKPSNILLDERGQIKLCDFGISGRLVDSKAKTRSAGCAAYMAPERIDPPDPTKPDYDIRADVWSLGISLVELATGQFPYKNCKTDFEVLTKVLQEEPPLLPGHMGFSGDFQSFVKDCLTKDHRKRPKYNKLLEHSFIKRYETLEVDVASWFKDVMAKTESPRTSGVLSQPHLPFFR
Method: as §1

[33] = target: IGF-1R(h) (Homo sapiens, UniProt P08069)
Method: as §1

[34] = target: BTK(h) (Homo sapiens, UniProt Q06187)
Method: as §1

[35] = target: c-RAF(h) (Homo sapiens, UniProt P04049)
Method: as §1

[36] = target: Fer(h) (Homo sapiens, UniProt P16591)
Method: as §1

[37] = target: MSK2(h) (Homo sapiens, UniProt O75676)
Method: as §1

`COc1cc(O)c2c(c1)[C@H]1O[C@@H]1C[C@H](O)[C@H](O)C(=O)/C=C\C[C@H](C)OC2=O` [Hypothemycin, hypothemycin] showed a remaining activity at 0.2 µM [1] of 87%, a remaining activity at 0.2 µM [2] of 100% and a remaining activity at 0.2 µM [3] of 104%. The remaining activity at 0.2 µM ([4]; 0.2 μM) was 106%, the remaining activity at 2 µM ([4]; 2.0 μM) was 94% and the remaining activity at 0.2 µM [5] was 104%. The remaining activity at 0.2 µM [6] was 98%, the remaining activity at 0.2 µM [7] was 98% and the remaining activity at 0.2 µM [8] was 93%. The remaining activity at 0.2 µM ([9]; 0.2 μM) was 73%, the remaining activity at 2 µM ([9]; 2.0 μM) was 40% and the remaining activity at 0.2 µM ([10]; 0.2 μM) was 82%. For the same compound, the remaining activity at 2 µM ([10]; 2.0 μM) was 83%, the remaining activity at 0.2 µM [11] was 108% and the remaining activity at 0.2 µM [12] was 99%. For the same compound, the remaining activity at 0.2 µM ([13]; 0.2 μM) was 54%, the remaining activity at 2 µM ([13]; 2.0 μM) was 8% and the remaining activity at 0.2 µM ([14]; 0.2 μM) was 634%. For the same compound, the remaining activity at 2 µM ([14]; 2.0 μM) was 106%, the remaining activity at 0.2 µM [15] was 87% and the remaining activity at 0.2 µM [16] was 94%. For the same compound, the remaining activity at 0.2 µM [17] was 76%, the remaining activity at 0.2 µM [18] was 102% and the remaining activity at 0.2 µM [19] was 97%. The remaining activity at 0.2 µM ([20]; 0.2 μM) was 31%, the remaining activity at 2 µM ([20]; 2.0 μM) was -2% and the remaining activity at 0.2 µM [21] was 98%. For the same compound, the remaining activity at 0.2 µM [22] was 93%, the remaining activity at 0.2 µM ([23]; 0.2 μM) was 79% and the remaining activity at 2 µM ([23]; 2.0 μM) was 5%. The remaining activity at 0.2 µM [24] was 87%, the remaining activity at 0.2 µM [25] was 108% and the remaining activity at 0.2 µM [26] was 97%. It also gave a remaining activity at 0.2 µM [27] of 110%, a remaining activity at 0.2 µM [28] of 95% and a remaining activity at 0.2 µM [29] of 97%. For the same compound, the remaining activity at 0.2 µM [30] was 91%, the remaining activity at 0.2 µM [31] was 104% and the remaining activity at 0.2 µM ([32]; 0.2 μM) was 85%. It also gave a remaining activity at 2 µM ([32]; 2.0 μM) of 41%, a remaining activity at 0.2 µM [33] of 107% and a remaining activity at 0.2 µM [34] of 104%. For the same compound, the remaining activity at 0.2 µM [35] was 103%, the remaining activity at 0.2 µM [36] was 102% and the remaining activity at 0.2 µM [37] was 101%.
